# Marks after values point to notes of the source that are not given here.
# Experiments:
# [1] = system: Pythium aphanidermatum; assay: Test A: bluegrass pythium blight, preventive spray on bluegrass seedlings
# [2] = system: Septoria tritici; assay: Test J: wheat leaf blotch, preventive spray on wheat seedlings; type: in vivo; details: Zymoseptoria tritici, 528 h; 200 ppm; read-out: Test J disease control rating
# Excerpt: A dash (-) indicates no test results.
# [3] = system: Puccinia recondita f. sp. tritici; assay: Test K: wheat leaf rust, preventive spray on wheat seedlings
# [4] = system: Sclerotinia sclerotiorum; assay: Test C: cucumber white mold, preventive spray on cucumber seedlings
# [5] = system: Erysiphe graminis f. sp. tritici; assay: Test L: wheat powdery mildew, preventive spray on wheat seedlings
# [6] = system: Plasmopara viticola; assay: Test D: grape downy mildew, spray after inoculation of grape seedlings; type: in vivo
# Excerpt: Upon removal, disease ratings were made. […] A dash (-) indicates no test results.
# [7] = system: Septoria nodorum; assay: Test H: wheat glum blotch, preventive spray on wheat seedlings
# Experimental: (the causal agent of wheat glum blotch) and incubated in a saturated atmosphere at 20° C. for 48 h, and then moved to a growth chamber at 22° C. for 5 days, after which disease ratings were made.
# [8] = system: Colletotrichum orbiculare; assay: Test B: cucumber Colletotrichum anthracnose, preventive spray on cucumber seedlings
# [9] = system: fusarium graminearium; assay: Test I: wheat head scab, preventive spray on wheat seedlings
# Experimental: (the causal agent of wheat head scab) and incubated in a saturated atmosphere at 20° C. for 72 h, and then moved to a growth chamber at 22° C. for 5 days, after which disease ratings were made.
# [10] = system: Botrytis cinerea; assay: Test E: tomato botrytis, preventive spray on tomato seedlings
# [11] = system: Phytophthora infestans; assay: whole plant or invertebrate; type: in vivo
# [12] = system: Rhizoctonia oryzae; assay: Test G: turf brown patch, preventive spray on creeping bent grass seedlings
# Experimental: (the causal agent of turf brown patch) and incubated in a saturated atmosphere at 27° C. for 24 h, and then moved to a growth chamber at 27° C. for 5 days, after which disease ratings were made.
Compound,Test A disease control rating ([1]; 200 ppm) [%],Test G disease control rating ([12]; 200 ppm) [%],Test K disease control rating ([3]; 200 ppm) [%],Test C disease control rating ([4]; 200 ppm) [%],Test L disease control rating ([5]; 200 ppm) [%],Test D disease control rating ([6]; 200 ppm) [%],Test H disease control rating ([7]; 200 ppm) [%],Test B disease control rating ([8]; 200 ppm) [%],Test I disease control rating ([9]; 200 ppm) [%],Test E disease control rating ([10]; 200 ppm) [%],Test F disease control rating ([11]; 200 ppm) [%],further results
"CC(C)Cn1c(-c2c(F)cccc2F)c(Cl)nc(-c2cn(C)cn2)c1=O [Compound 85, 5-Chloro-6-(2,6-difluorophenyl)-1-(2-methylpropyl)-3-(1-methyl-1H-imidazol-4-yl)-2(1H)-pyrazinone]",,,,,,,,,,,,"pest or weed control at 200 ppm ([1]; Pythium aphanidermatum, 120 h, read-out: Test A disease control rating): 0%; pest or weed control at 200 ppm [2]: 100%; pest or weed control at 200 ppm ([3]; Puccinia recondita, in Triticum aestivum, 192 h, read-out: Test K disease control rating): 99%; pest or weed control at 200 ppm ([4]; Sclerotinia sclerotiorum, in Cucumis sativus, 168 h, read-out: Test C disease control rating, 200 ppm): 95%; pest or weed control at 200 ppm ([5]; Blumeria graminis, in Triticum aestivum, 168 h, read-out: Test L disease control rating, 200 ppm): 0%; pest or weed control at 200 ppm ([6]; Plasmopara viticola, 168 h, 200 ppm, read-out: Test D disease control rating): 0%; pest or weed control at 200 ppm ([7]; Parastagonospora nodorum, in Triticum aestivum, topical, 168 h, read-out: Test H disease control rating, 200 ppm): 97%; pest or weed control at 200 ppm ([8]; Colletotrichum orbiculare, in Cucumis sativus, 144 h, read-out: Test B disease control rating, 200 ppm): 80%; pest or weed control at 200 ppm ([9]; Fusarium, in Triticum aestivum, topical, 192 h, read-out: Test I disease control rating, 200 ppm): 55%; pest or weed control at 200 ppm ([10]; Botrytis cinerea, in Solanum lycopersicum, topical, 72 h, read-out: Test E disease control rating): 100%; pest or weed control at 200 ppm ([11]; Phytophthora infestans, in Solanum lycopersicum, topical, 144 h, read-out: Test F disease control rating): 0%"
CC(C)Cn1c(-c2cccc(Cl)c2Cl)c(Cl)nc(-n2cncn2)c1=O [compound 39],0,0,67,0,0,0,89,0,0,99,0,
CC(C)Cn1c(-c2c(Cl)cccc2Cl)c(Cl)nc(-n2cncn2)c1=O [compound 40],0,65,99,0,21,0,99,0,0,100,0,
CC(C)Cn1c(-c2cccc(Cl)c2Cl)c(Cl)nc(-n2cccn2)c1=O [compound 41],0,47,83,98,0,8,100,68,0,100,0,
CC(C)Cn1c(-c2cc(Cl)cc(Cl)c2)c(Cl)nc(-n2cccn2)c1=O [compound 42],0,0,0,0,0,0,0,0,60,0,0,
CC(C)Cn1c(-c2ccc(Cl)cc2F)c(Cl)nc(-n2cncn2)c1=O [compound 44],,,,,,,,,,,,Test A disease control rating ([1]; 40 ppm (*)): 0* %; Test G disease control rating ([12]; 40 ppm (*)): 16* %; Test K disease control rating ([3]; 40 ppm (*)): 0* %; Test C disease control rating ([4]; 40 ppm (*)): 0* %; Test L disease control rating ([5]; 40 ppm (*)): 0* %; Test D disease control rating ([6]; 40 ppm (*)): 0* %; Test H disease control rating ([7]; 40 ppm (*)): 0* %; Test B disease control rating ([8]; 40 ppm (*)): 0* %; Test I disease control rating ([9]; 40 ppm (*)): 0* %; Test E disease control rating ([10]; 40 ppm (*)): 95* %; Test F disease control rating ([11]; 40 ppm (*)): 0* %
CC(C)Cn1c(-c2ccc(C(F)(F)F)cc2F)c(Cl)nc(-n2cccn2)c1=O [compound 46],0,0,0,0,0,0,0,0,78,0,0,
CC(C)=NNc1nc(Cl)c(-c2c(F)cccc2F)n(CC(C)C)c1=O [compound 48],0,16,80,0,0,0,0,0,0,83,0,
COc1nc(-n2cccn2)c(=O)n(C2CCCCC2)c1-c1c(F)cccc1F [compound 49],0,16,0,0,21,8,0,0,0,47,0,
CC(C)Cn1c(-c2ccc(F)cc2Cl)c(Cl)nc(-n2cncn2)c1=O [compound 51],0,31,100,99,63,0,100,98,94,100,0,
CC(C)Cn1c(-c2cccc(F)c2F)c(Cl)nc(-n2cncn2)c1=O [compound 52],0,16,74,90,21,0,98,0,0,98,0,
CC(C)Cn1c(-c2cc(F)ccc2F)c(Cl)nc(-n2cncn2)c1=O [compound 54],0,84,98,92,0,0,90,0,0,100,0,
CC(C)Cn1c(-c2c(F)ccc(F)c2F)c(Cl)nc(-n2cncn2)c1=O [compound 55],0,96,99,85,0,0,95,0,78,100,0,

# From patent publication US20080194585A1, “Fungicidal Pyrazine Derivatives” (priority 2005, published 2008)
